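How tested: cells in 96-well plates exposed to compound for 48 hours at five concentrations. Abbreviation: GI50, concentration required for 50% inhibition of growth. The concentration for full growth arrest is given as TGI.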
Assays:
Assay in all cases: NCI-60 cell line screen, 48 h
HOP-92 NSCLC = test system: HOP-92 NSCLC
OVCAR-4 ovarian = test system: OVCAR-4 ovarian
PC-3 prostate = test system: PC-3 prostate
MOLT-4 leukemia = test system: MOLT-4 leukemia
COLO 205 colon = test system: COLO 205 colon
SK-MEL-2 melanoma = test system: SK-MEL-2 melanoma
M14 melanoma = test system: M14 melanoma
K-562 leukemia = test system: K-562 leukemia
NCI-H23 lung = test system: NCI-H23 lung
786-0 renal = test system: 786-0 renal

SMILES | GI50 (HOP-92 NSCLC) [µM] | TGI (HOP-92 NSCLC) [µM] | GI50 (OVCAR-4 ovarian) [µM] | TGI (OVCAR-4 ovarian) [µM] | GI50 (PC-3 prostate) [µM] | TGI (PC-3 prostate) [µM] | GI50 (MOLT-4 leukemia) [µM] | TGI (MOLT-4 leukemia) [µM] | GI50 (COLO 205 colon) [µM] | TGI (COLO 205 colon) [µM] | GI50 (SK-MEL-2 melanoma) [µM] | TGI (SK-MEL-2 melanoma) [µM] | GI50 (M14 melanoma) [µM] | TGI (M14 melanoma) [µM] | GI50 (K-562 leukemia) [µM] | TGI (K-562 leukemia) [µM] | GI50 (NCI-H23 lung) [µM] | TGI (NCI-H23 lung) [µM] | GI50 (786-0 renal) [µM] | TGI (786-0 renal) [µM]
COc1cc(C(=O)O)ccc1NC(=O)[C@@H]1N[C@@H](CC(C)(C)C)[C@](C#N)(c2ccc(Cl)cc2F)[C@H]1c1cccc(Cl)c1F | 2.48 | 5.15 | 4.56 | 29.6 | 2.91 | > 42.6 | 0.083 | 2.07 | 3.1 | 12 | 2.96 | 10 | 3.18 | > 30.1 | 4.15 | > 100 | 5.47 | 19.5 | 3.45 | 18.4
C[C@]12CC[C@@H]3c4ccc(OCC(=O)O)cc4CC[C@H]3[C@@H]1CCC2=O |  | > 100 |  | > 100 |  | > 100 |  | 64.4 |  | > 100 |  | > 100 |  | > 100 |  |  |  | > 100 |  | > 100
O=C(/C=C/c1ccc2c(c1)OCO2)c1ccccc1 | 15.4 | 41.3 | 24.8 | > 100 | 22.5 | 58.4 | 8.09 | > 100 | 19.1 | 36.7 |  |  | 13.2 | 29.8 | 4.42 | > 100 | 17.4 | 38.6 | 14.8 | 31
Fc1ccc(Nc2ccc3cc(OCCCN4CCOCC4)ccc3n2)cc1F | 2.63 | 7.9 | 4.14 | > 100 | 4.29 | 50 | 3.45 | > 100 | 1.96 | 3.84 | 4.84 | 33.5 |  |  | 2.78 | > 100 | 3.93 | > 100 | 2.15 | 4.68
Cc1ccc(-c2nc3nc(-c4ccc(Cl)cc4)nc(N4CCCNCC4)c3o2)cc1 | 1.36 | 2.91 | 1.84 | 3.39 | 1.6 | 3.14 | 1.91 | 3.72 | 2.08 | 4.26 | 2.04 | 3.94 | 1.75 | 3.34 |  |  | 1.83 | 3.41 | 1.86 | 3.54
COc1cc(/C=C/C(=O)CC(=O)/C=C/c2ccc(OC(=O)CCNC34CC5CC(CC(C5)C3)C4)c(OC)c2)ccc1OC(=O)CCNC12CC3CC(CC(C3)C1)C2 | 2.64 | 17.6 | 11 | > 100 | 4.13 | 21.1 | 3.08 | 16.2 | 4.71 | 20.8 | 4.48 | 16.3 | 3.48 | 14.1 | 4.41 | > 100 |  |  | 3.2 | 21.3
O=C(c1cccs1)c1c(C(F)(F)F)n([O-])c2cc(C(F)(F)F)ccc2[n+]1=O | 0.172 | 0.342 |  |  | 0.136 | 0.281 | 0.0757 | 0.231 | 0.174 | 0.362 | 0.915 | 2.46 | 0.554 | 1.19 | 0.0303 | 0.101 | 0.348 | 1.27 | 0.171 | 0.319
COc1ccc2c(c1)/C(=C/c1c(-c3ccc(C)cc3)nc3sc(C)cn13)C(=O)N2 | 10.3 | 60.5 | 14.2 | > 100 | 4.61 | > 100 |  |  | 19.8 | > 100 | 14.6 | 47.7 | 13.2 | 59.1 | 4.95 | > 100 | 6.86 | 32.5 | 6.68 | 50.2
N#C/C(=C\c1ccc(Br)cc1)n1nnc2cc(F)c(F)cc21 | 1.57 | 4.15 | 1.95 | 6.09 | 1.8 | 3.81 | 2.7 | 8.65 | 1.99 | 4.04 | 1.76 | 3.4 |  |  | 2 | > 100 | 1.76 | 3.44 | 1.67 | 3.18
COc1ccc2c(c1)C(=O)c1c-2c(N2CCN(C(=O)CN(C)C)CC2)nc2ccccc12 | 5.69 | 24.2 | 13 | 29.5 | 14.4 | 31.5 | 5.23 | 24.8 | 13.3 | 28.1 | 18.4 | 39 | 15.6 | 31.5 | 9.17 | > 100 |  |  | 14.4 | 33.7
COc1cc(/C=C2\C[C@H]3[C@@H]4CC=C5C[C@@H](OC(C)=O)CC[C@]5(C)[C@H]4CC[C@]3(C)[C@H]2OC(C)=O)ccc1OCCCn1ccnc1 | 9.45 | 20 |  |  | 11.5 | 29.1 | 17.1 | > 50 | 11.6 | 38.5 | 16.7 | > 50 | 8.85 | 16.6 | 5.59 | 19.7 | 9.94 | 21.1 | 6.06 | 13.4
CC(=O)NC(Cc1c[nH]c2ccccc12)C(=O)O (stereo not drawn) |  | > 100 |  | > 100 |  | > 100 |  |  |  | > 100 |  | > 100 |  | > 100 |  | > 100 |  | > 100 |  | > 100
O=C(Nc1cccc(-c2nc3ccccc3[nH]2)c1)c1cccc(NC(=O)c2ccco2)c1 | 2.63 | 5.89 | 1.73 | 3.1 | 2.25 | 5.48 | 2.96 | 12 | 3.49 | 10.6 | 5.33 | 16.9 |  |  | 2.03 | 4.36 | 2.15 | 4.94 | 1.65 | 3.05

— PubChem BioAssay (NCI)
